Assay results as given in patent US11478471B2, “Methods and compositions for treating diabetes, metabolic syndrome and other conditions” (priority 2005, dated 2022).
In brackets after ≈: the same amount, converted by molar mass. Entries after “also recorded” stand apart in the source; their conditions may differ. Like-named read-outs stand apart in the source and are kept apart here.

Legend:
plasma corticosterone = test: Plasma corticosterone in rats after oral dosing (ELISA); type: in vivo, Sprague Dawley rats; conditions: for effect on plasma corticosterone (FIG. 1): 200 mg/kg oral, vs vehicle; for Corticosteroid Levels (mean ± SEM): 4 h after gavage
Method: To generate the results shown in FIG. 1, five groups (eight per group) of rats were used. The rats were maintained on a 14/10 hour light/dark cycle and allowed free access to food and water. Each rat was dosed (200 mg drug/kg body weight) via a gastric tube. […] All of the rats were dosed between 2.00 and 3.00 pm and were sacrificed four hours later (between 6.00 and 7.00 pm). Plasma was prepared and the concentration of corticosterone determined by an enzyme linked immuno assay (ELISA). In rats, the predominant active glucocorticoid is corticosterone; in humans, the predominant active glucucorticoid is the closely related molecule cortisol.
The rats were maintained and dosed as described above. Plasma was prepared and the concentration of corticosterone in the plasma determined by ELISA.
(§1) The rats were maintained as described above; the drugs were suspended in olive oil, and each rat was dosed once via gastric tube to achieve a dose of 200 mg/kg. All of the rats were dosed at a specific time so that all terminations occurred between 6 and 7 pm. […] Following sacrifice, plasma was prepared, and the concentration of corticosterone in the plasma was determined by ELISA. In the same plasma samples, total cholesterol levels were also determined.
In the Table, corticosterone levels (mean±SEM; ng/mL) were determined four hours after oral gavage of the indicated drug (N=10/group). There was a single control group (dosed with vehicle).
Corticosterone levels (mean±SEM; ng/mL) were determined at the indicated times after oral gavage of the indicated drug at 200 mg/kg. […] The means of the vehicle treated groups are used as the time zero control point.

Candida tropicalis = test: Antifungal MIC; type: cell-based
Saccharomyces cerevisiae = test: Antifungal MIC; type: cell-based; conditions: DSM01333, DSM strain 01333, 48 h
Candida kefyr = test: Antifungal MIC; type: cell-based; conditions: Kluyveromyces marxianus, DSM11954; DSM strain 11954, 48 h
cholesterol levels = test: Cholesterol levels in rats after oral dosing; type: in vivo, Sprague Dawley rats; conditions: single oral 200 mg/kg
Method: as §1

testosterone levels = test: Testosterone levels in rats after oral dosing; type: in vivo, Sprague Dawley rats; conditions: for Testosterone levels (mean ± SEM): 4 h after gavage
Description: There was a single control group (dosed with vehicle).
The means of the vehicle treated groups are used as the time zero control point.

[1] = humans, cited from earlier work
P450 3A = conditions: read-out: IC50, progesterone 6β hydroxylase (3A); Rotstein et al. 1992; cited from earlier work
Candida albicans = test: Antifungal MIC; type: cell-based; conditions: read-out: MIC
Issatchenkia orientalis = test: Antifungal MIC; type: cell-based; conditions: Pichia kudriavzevii, read-out: MIC
P450 2C6 = P450 2C6 (Rattus norvegicus, UniProt P05178); conditions: Rotstein et al. 1992; read-out: IC50, progesterone 21 hydroxylase (2C6); cited from earlier work
[2] = test system: P450 2B1, 2B2, 1A1, 2C11, 3A; conditions: read-out: IC50, progesterone 16α hydroxylase (2B1, 2B2, 1A1, 2C11, 3A); Rotstein et al. 1992; cited from earlier work
[3] = test system: CYP7A (cholesterol 7α hydroxylase); test: Inhibition of CYP7A, cholesterol 7α-hydroxylase activity (Rotstein et al. 1992); conditions: assuming intrahepatic concentration approximately 20% of total plasma concentration; listed as 2R,4S enantiomer
Cryptococcus neoformans = test: Antifungal MIC; type: cell-based
Candida parapsilosis = test: Antifungal MIC; type: cell-based; conditions: Lodderomyces parapsilosis, read-out: MIC
Candida guilliermondii = test: Antifungal MIC; type: cell-based; conditions: Meyerozyma guilliermondii, DSM11947; DSM strain 11947, 48 h
P450 4A = conditions: read-out: IC50, lauric acid hydroxylase (4A); Rotstein et al. 1992; cited from earlier work
Candida glabrata = test: Antifungal MIC; type: cell-based; conditions: Nakaseomyces glabratus, read-out: MIC
succinate dehydrogenase = target: T1, succinate dehydrogenase (Rattus norvegicus, UniProt Q920L2); conditions: read-out: in vitro IC50, succinate dehydrogenase; cited from earlier work
T1 construct: host or cells: isolated rat liver mitochondria (from the cited title)

[4] = following fifth 200 mg dose of racemic ketoconazole (every twelve hours)
[5] = following first 200 mg dose of racemic ketoconazole

Chain of P450 2C6 (P05178 whole entry): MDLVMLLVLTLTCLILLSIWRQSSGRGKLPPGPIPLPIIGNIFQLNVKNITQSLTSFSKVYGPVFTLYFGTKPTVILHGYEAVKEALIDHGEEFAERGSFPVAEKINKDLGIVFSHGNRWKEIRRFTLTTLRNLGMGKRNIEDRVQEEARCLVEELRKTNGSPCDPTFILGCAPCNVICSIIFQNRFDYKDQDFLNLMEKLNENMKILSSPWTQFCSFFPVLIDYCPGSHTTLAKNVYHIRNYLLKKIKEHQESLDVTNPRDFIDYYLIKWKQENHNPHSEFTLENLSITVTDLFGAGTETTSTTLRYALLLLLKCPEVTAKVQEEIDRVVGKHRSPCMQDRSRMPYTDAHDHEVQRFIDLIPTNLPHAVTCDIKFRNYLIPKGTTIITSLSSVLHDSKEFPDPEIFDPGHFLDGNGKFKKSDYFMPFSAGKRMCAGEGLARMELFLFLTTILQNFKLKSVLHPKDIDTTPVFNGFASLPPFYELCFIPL
T1 sequence (Q920L2 35-656): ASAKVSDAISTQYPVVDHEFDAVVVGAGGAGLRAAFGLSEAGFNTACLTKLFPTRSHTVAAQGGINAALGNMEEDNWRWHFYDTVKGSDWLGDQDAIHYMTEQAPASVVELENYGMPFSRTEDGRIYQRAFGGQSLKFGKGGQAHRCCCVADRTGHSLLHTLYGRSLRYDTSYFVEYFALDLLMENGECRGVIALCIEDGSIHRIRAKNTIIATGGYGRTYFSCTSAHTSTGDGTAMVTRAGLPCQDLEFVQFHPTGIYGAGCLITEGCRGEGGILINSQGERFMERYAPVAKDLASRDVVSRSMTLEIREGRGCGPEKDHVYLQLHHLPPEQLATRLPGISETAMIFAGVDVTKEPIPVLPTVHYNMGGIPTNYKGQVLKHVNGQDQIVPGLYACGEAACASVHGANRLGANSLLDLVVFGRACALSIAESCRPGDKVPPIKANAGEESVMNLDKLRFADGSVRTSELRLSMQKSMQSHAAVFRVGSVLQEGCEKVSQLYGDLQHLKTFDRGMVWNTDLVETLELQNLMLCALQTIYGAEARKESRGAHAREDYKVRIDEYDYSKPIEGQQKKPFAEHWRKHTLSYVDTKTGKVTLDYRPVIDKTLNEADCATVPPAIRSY
T1 sequence (P21913 31-282 partner): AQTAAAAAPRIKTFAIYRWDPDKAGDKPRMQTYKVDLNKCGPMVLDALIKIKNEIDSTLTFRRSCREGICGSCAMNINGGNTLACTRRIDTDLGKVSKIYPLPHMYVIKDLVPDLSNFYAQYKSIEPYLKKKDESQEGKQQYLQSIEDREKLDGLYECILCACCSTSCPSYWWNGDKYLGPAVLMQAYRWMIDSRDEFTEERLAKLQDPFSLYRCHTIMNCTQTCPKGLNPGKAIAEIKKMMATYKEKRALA
T1 sequence (Q641Z9 30-169 partner limits assumed): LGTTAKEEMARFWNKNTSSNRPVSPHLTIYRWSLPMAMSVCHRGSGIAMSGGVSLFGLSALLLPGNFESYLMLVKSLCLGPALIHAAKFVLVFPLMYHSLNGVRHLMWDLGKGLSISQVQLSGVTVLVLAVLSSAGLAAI
T1 sequence (Q6PCT8 57-159 partner): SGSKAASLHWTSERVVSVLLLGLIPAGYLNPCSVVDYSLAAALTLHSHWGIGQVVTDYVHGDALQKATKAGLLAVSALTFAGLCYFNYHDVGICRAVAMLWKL

CC(=O)N1CCN(c2ccc(OCC3COC(Cn4ccnc4)(c4ccc(Cl)cc4Cl)O3)cc2)CC1 (stereo not drawn) [2S45]
effect on plasma corticosterone (FIG. 1) (plasma corticosterone; 4 h): little effect

CC(=O)N1CCN(c2ccc(OC[C@H]3CO[C@](Cn4ccnc4)(c4ccc(Cl)cc4Cl)O3)cc2)CC1 [2R,4S]
MIC (Candida tropicalis; DSM11951, 48 h): 0.125 µg/mL (≈ 0.235 µM)
MIC (Candida tropicalis; DSM11952, DSM strain 11952, 48 h, read-out: MIC): 4 µg/mL (≈ 7.53 µM)
MIC (Candida tropicalis; DSM11953, 48 h): 0.125 µg/mL (≈ 0.235 µM)
MIC (Saccharomyces cerevisiae): 0.25 µg/mL (≈ 0.47 µM)
MIC (Candida kefyr): 0.03 µg/mL (≈ 0.0565 µM)
Cholesterol Levels (mean ± SEM) (cholesterol levels; 4 h): 85.1 ± 7 mg/dL
Cholesterol Levels (mean ± SEM) (cholesterol levels; 8 h): 85.1 ± 5.4 mg/dL
Cholesterol Levels (mean ± SEM) (cholesterol levels; 12 h): 77.3 ± 1.9 mg/dL
Cholesterol Levels (mean ± SEM) (cholesterol levels; 16 h): 77.3 ± 4.6 mg/dL
Cholesterol Levels (mean ± SEM) (cholesterol levels; 20 h): 69.6 ± 2.7 mg/dL
Cholesterol Levels (mean ± SEM) (cholesterol levels; 24 h): 69.6 ± 1.5 mg/dL
Testosterone levels (mean ± SEM) (testosterone levels; single oral 50 mg/kg): 2.5 ± 0.5 nmol/L
Testosterone levels (mean ± SEM) (testosterone levels; single oral 100 mg/kg): 1.3 ± 0.2 nmol/L
Testosterone levels (mean ± SEM), time course (testosterone levels; single oral 200 mg/kg, 4 h): 3.4 ± 0.5 nmol/L
Testosterone levels (mean ± SEM) (testosterone levels; single oral 200 mg/kg): 1.4 ± 0.4 nmol/L
Testosterone levels (mean ± SEM), time course (testosterone levels; single oral 200 mg/kg, 8 h): 8.6 ± 2.0 nmol/L
Testosterone levels (mean ± SEM), time course (testosterone levels; single oral 200 mg/kg, 12 h): 5.6 ± 1.1 nmol/L
Testosterone levels (mean ± SEM), time course (testosterone levels; single oral 200 mg/kg, 16 h): 5.5 ± 0.9 nmol/L
Testosterone levels (mean ± SEM), time course (testosterone levels; single oral 200 mg/kg, 20 h): 5.2 ± 1.1 nmol/L
Testosterone levels (mean ± SEM), time course (testosterone levels; single oral 200 mg/kg, 24 h): 6.0 ± 1.0 nmol/L
Testosterone levels (mean ± SEM) (testosterone levels; single oral 400 mg/kg): 0.7 ± 0.2 nmol/L
Testosterone levels (mean ± SEM) (testosterone levels; single oral 600 mg/kg): 1.6 ± 0.3 nmol/L
AUC 0-12 [1, 4]: 1543 ± 231 µg·min/mL
Cmax [1, 4]: 4770 ± 550 ng/mL
T ½ [1, 4]: 2.63 ± 0.317 h
AUC 0-12 [1, 5]: 820 ± 142 µg·min/mL
Cmax [1, 5]: 3400 ± 440 ng/mL
T ½ [1, 5]: 1.62 ± 0.13 h
IC50 (P450 3A): 0.79 µM
MIC (Candida albicans; DSM11225, DSM strain 11225, 48 h): < 0.015 µg/mL
MIC (Candida albicans; DSM11943, DSM strain 11943, 48 h): < 0.015 µg/mL
MIC (Candida albicans; DSM11944, DSM strain 11944, 48 h): < 0.015 µg/mL
MIC (Candida albicans; DSM11945, DSM strain 11945, 48 h): 0.03 µg/mL (≈ 0.0565 µM)
MIC (Candida albicans; DSM11948, DSM strain 11948, 48 h): < 0.015 µg/mL
MIC (Candida albicans; DSM11949, DSM strain 11949, 48 h): 0.25 µg/mL (≈ 0.47 µM)
MIC (Candida albicans; strain 98-St-00799, 48 h): < 0.015 µg/mL
MIC (Issatchenkia orientalis; DSM11956, DSM strain 11956, 48 h): 0.5 µg/mL (≈ 0.941 µM)
MIC (Issatchenkia orientalis; DSM11958, DSM strain 11958, 48 h): 2 µg/mL (≈ 3.76 µM)
IC50 (P450 2C6): 11.2 µM
IC50 [2]: 69 µM
total plasma concentration required to inhibit intrahepatic CYP7A [3]: approximately 1 microM; also recorded: approximately 0.5 microg/mL
MIC (Cryptococcus neoformans; DSM11959, DSM strain 11959, 48 h): 0.03 µg/mL (≈ 0.0565 µM)
MIC (Cryptococcus neoformans; DSM11960, DSM strain 11960, 48 h): 0.125 µg/mL (≈ 0.235 µM)
effect on plasma corticosterone (FIG. 1) (plasma corticosterone; 4 h): reduce corticosterone
Corticosteroid Levels (mean ± SEM) (plasma corticosterone; single oral 50 mg/kg): 226 ± 30.1 ng/mL
Corticosteroid Levels (mean ± SEM) (plasma corticosterone; single oral 100 mg/kg): 196 ± 17.2 ng/mL
Corticosteroid Levels (mean ± SEM), time course (plasma corticosterone; single oral 200 mg/kg, 4 h): 191 ± 14 ng/mL
Corticosteroid Levels (mean ± SEM) (plasma corticosterone; single oral 200 mg/kg): 217 ± 25.8 ng/mL
Corticosteroid Levels (mean ± SEM), time course (plasma corticosterone; single oral 200 mg/kg, 8 h): 206 ± 13 ng/mL
Corticosteroid Levels (mean ± SEM), time course (plasma corticosterone; single oral 200 mg/kg, 12 h): 175 ± 9 ng/mL
Corticosteroid Levels (mean ± SEM), time course (plasma corticosterone; single oral 200 mg/kg, 16 h): 171 ± 9 ng/mL
Corticosteroid Levels (mean ± SEM), time course (plasma corticosterone; single oral 200 mg/kg, 20 h): 169 ± 7 ng/mL
Corticosteroid Levels (mean ± SEM), time course (plasma corticosterone; single oral 200 mg/kg, 24 h): 182 ± 10 ng/mL
Corticosteroid Levels (mean ± SEM) (plasma corticosterone; single oral 400 mg/kg): 192 ± 11.6 ng/mL
Corticosteroid Levels (mean ± SEM) (plasma corticosterone; single oral 600 mg/kg): 167 ± 6.8 ng/mL
MIC (Candida parapsilosis; DSM05784, DSM strain 05784, 48 h): 0.06 µg/mL (≈ 0.113 µM)
MIC (Candida parapsilosis; DSM11224, DSM strain 11224, 48 h): 0.06 µg/mL (≈ 0.113 µM)
MIC (Candida guilliermondii): 0.25 µg/mL (≈ 0.47 µM)
IC50 (P450 4A): < 100 µM
MIC (Candida glabrata; DSM11226, DSM strain 11226, 48 h): 0.5 µg/mL (≈ 0.941 µM)
MIC (Candida glabrata; DSM11950, DSM strain 11950, 48 h): 0.25 µg/mL (≈ 0.47 µM)

Clc1ccc(C2(Cn3ccnc3)OCC(COc3ccc(N4CCNCC4)cc3)O2)c(Cl)c1 (stereo not drawn) [DAK, deacetylated ketoconazole]
IC50 (succinate dehydrogenase): 350 µM
